The values below are quoted from earlier work in patent US20060074101A1, “Method of treating post operative nausea and vomiting” (Helsinn Healthcare SA, priority 2003, published 2006).

For data set [1] the following is noted: in vivo, cited from earlier work.
In a further data set the test system is PONV. The note with it: Scuderi et al. (2002); cited from earlier work.

Counter-ions that a name gives are not always drawn. Like-named read-outs stand apart in the source and are kept apart here.

Consider `CN1C2CCCC1CC(NC(=O)c1nn(C)c3ccccc13)C2` (centres unmarked) [Kytril, granisetron hydrochloride], for which, in data set [1], the plasma half-life was 1.77 to 17.73 h.

In the case of `O=C(O[C@@H]1C[C@@H]2C[C@H]3C[C@H](C1)N2CC3=O)c1c[nH]c2ccccc12` [dolasetron], the serum half life entry in data set [1] is “approximately 7.5 hours”.

As to `Cc1nccn1CC1CCc2c(c3ccccc3n2C)C1=O` (centres unmarked) [ondansetron], the serum half life was about 5.5 h in data set [1] and 5 to 6 h in data set [1] (listed as Zofran). Besides, the “patients requiring additional therapy after treatment” value with PONV is listed as 38-50%.
